From US11345712B2, “Protein-targeting compounds and pharmaceutical compositions thereof, and their therapeutic applications” (BioTheryX, Inc., priority 2019, dated 2022)

Test system: MOLM-13 cells
Experiment: MOLM-13 cell viability assay (CellTiter-Glo)
Type: cell-based
Settings: Homo sapiens, MOLM-13, 72 h, 3 days, concentration of 1 μM, read-out: Antiproliferative Activity (inhibition, MOLM-13 cell viability)
In short: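 Luminescent ATP read-out (CellTiter-Glo, 10 min with shaking) after 3-day compound or DMSO exposure at 37° C, 5% CO2. Cells plated at 2,500/well in RPMI 1640 plus 10% FBS.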

| SMILES | cytotoxicity at 1 µM |
| --- | --- |
| CC(C)[C@@H](N)C(=O)OCN1C(=O)CCC(N2Cc3c(CNC(=O)C(=O)c4ccc(C(C)(C)C)cc4)cccc3C2=O)C1=O (stereo partly drawn) [Compound I-49, (2R)-(3-(4-((2-(4-(tert-butyl)phenyl)-2-oxoacetamido)methyl)-1-oxoisoindolin-2-yl)-2,6-dioxopiperidin-1-yl)methyl 2-amino-3-methylbutanoate] | 50 to 80% |
| Cc1cc(C(C)(C)C)cc(C)c1C(=O)C(=O)NCc1cccc2c1CN(C1CCC(=O)NC1=O)C2=O (stereo not shown) [Compound I-105, 2-(4-(tert-butyl)-2,6-dimethylphenyl)-N-((2-(2,6-dioxopiperidin-3-yl)-1-oxoisoindolin-4-yl)methyl)-2-oxoacetamide] | < 25% |
| O=C1CCC(N2Cc3c(csc3CNC(=O)C(=O)c3ccc(O)cc3)C2=O)C(=O)N1 (stereo not shown) [Compound I-16, 2-(4-hydroxyphenyl)-N-((5-(2,6-dioxopiperidin-3-yl)-4-oxo-5,6-dihydro-4H-thieno[3,4-c]pyrrol-1-yl)methyl)-2-oxoacetamide] | < 25% |
| CN(Cc1cccc2c1CN(C1CCC(=O)NC1=O)C2=O)C(=O)C(=O)c1ccc(C(C)(C)C)cc1 (stereo not shown) [Compound I-47, 2-(4-(tert-butyl)phenyl)-N-((2-(2,6-dioxopiperidin-3-yl)-1-oxoisoindolin-4-yl)methyl)-N-methyl-2-oxoacetamide] | < 25% |
| NC(C(=O)NCc1scc2c1CN(C1CCC(=O)NC1=O)C2=O)c1cccc(Cl)c1 (stereo not shown) [II-89, 2-amino-2-(3-chlorophenyl)-N-((5-(2,6-dioxopiperidin-3-yl)-4-oxo-5,6-dihydro-4H-thieno[3,4-c]pyrrol-1-yl)methyl)acetamide] | < 25% |
| CC(C)(C)c1cccc(C(=O)C(=O)NCc2cccc3c2CN(C2CCC(=O)NC2=O)C3=O)c1 (stereo not shown) [Compound I-46, 2-(3-(tert-butyl)phenyl)-N-((2-(2,6-dioxopiperidin-3-yl)-1-oxoisoindolin-4-yl)methyl)-2-oxoacetamide] | 25 to 50% |
| O=C1CCC(N2Cc3c(CNC(=O)C(=O)c4cccc(F)c4)cccc3C2=O)C(=O)N1 (stereo not shown) [Compound I-92, 2-(3-fluorophenyl)-N-((2-(2,6-dioxopiperidin-3-yl)-1-oxoisoindolin-4-yl)methyl)-2-oxoacetamide] | 50 to 80% |
| CC(C)(C)C1CCN(C(=O)C(=O)NCc2cccc3c2CN(C2CCC(=O)NC2=O)C3=O)CC1 (stereo not shown) [Compound I-61, 2-(4-(tert-butyl)piperidin-1-yl)-N-((2-(2,6-dioxopiperidin-3-yl)-1-oxoisoindolin-4-yl)methyl)-2-oxoacetamide] | < 25% |
| CN(C)Cc1cccc(NC(=O)NCc2cc3c(s2)C(=O)N(C2CCC(=O)NC2=O)C3)c1 (stereo not shown) [II-53, 1-(3-((dimethylamino)methyl)phenyl)-3-((5-(2,6-dioxopiperidin-3-yl)-6-oxo-5,6-dihydro-4H-thieno[2,3-c]pyrrol-2-yl)methyl)urea] | < 25% |
| COc1ccc(C(=O)C(=O)NCc2ccc3c(c2)CN(C2CCC(=O)NC2=O)C3=O)cc1 (stereo not shown) [Compound I-89, N-((2-(2,6-dioxopiperidin-3-yl)-1-oxoisoindolin-5-yl)methyl)-2-(4-methoxyphenyl)-2-oxoacetamide] | > 80% |
| O=C1CCC(N2Cc3cc(CNC(=O)C(=O)c4ccccc4)ccc3C2=O)C(=O)N1 (stereo not shown) [Compound I-83, N-((2-(2,6-dioxopiperidin-3-yl)-1-oxoisoindolin-5-yl)methyl)-2-oxo-2-phenylacetamide] | > 80% |
| O=C(Cc1ccc(N2CCOCC2)cc1)NCc1scc2c1CN(C1CCC(=O)NC1=O)C2=O (stereo not shown) [II-83, N-((5-(2,6-dioxopiperidin-3-yl)-4-oxo-5,6-dihydro-4H-thieno[3,4-c]pyrrol-1-yl)methyl)-2-(4-morpholinophenyl)acetamide] | < 25% |
| O=C1CCC(N2Cc3c(csc3CNC(=S)Nc3c(Cl)c(Cl)cc(Cl)c3Cl)C2=O)C(=O)N1 (stereo not shown) [II-123, 1-((5-(2,6-dioxopiperidin-3-yl)-4-oxo-5,6-dihydro-4H-thieno[3,4-c]pyrrol-1-yl)methyl)-3-(2,3,5,6-tetrachlorophenyl)thiourea] | < 25% |
| Cc1ccc(CCC(C)(C)C(=O)NCc2scc3c2CN([C@H]2CCC(=O)NC2=O)C3=O)cc1Cl [II-104, (S)-4-(3-chloro-4-methylphenyl)-N-((5-(2,6-dioxopiperidin-3-yl)-4-oxo-5,6-dihydro-4H-thieno[3,4-c]pyrrol-1-yl)methyl)-2,2-dimethylbutanamide] | < 25% |
| CN(C)C(C(=O)NCc1scc2c1CN(C1CCC(=O)NC1=O)C2=O)c1ccccc1F (stereo not shown) [II-108, 2-(dimethylamino)-N-((5-(2,6-dioxopiperidin-3-yl)-4-oxo-5,6-dihydro-4H-thieno[3,4-c]pyrrol-1-yl)methyl)-2-(2-fluorophenyl)acetamide] | < 25% |
| O=C1CCC(N2Cc3cc(CNC(=O)C(=O)c4cccc(Cl)c4)ccc3C2=O)C(=O)N1 (stereo not shown) [Compound I-91, 2-(3-chlorophenyl)-N-((2-(2,6-dioxopiperidin-3-yl)-1-oxoisoindolin-5-yl)methyl)-2-oxoacetamide] | > 80% |

| SMILES | cytotoxicity at 1 µM |
| --- | --- |
| O=C1CCC(N2Cc3c(CNC(=O)C(=O)c4ccc(C5(C(F)(F)F)CC5)cc4)cccc3C2=O)C(=O)N1 (stereo not shown) [Compound I-30, N-((2-(2,6-dioxopiperidin-3-yl)-1-oxoisoindolin-4-yl)methyl)-2-oxo-2-(4-(1-(trifluoromethyl)cyclopropyl)phenyl)acetamide] | > 80% |
| Cc1c(CNC(=O)C(=O)c2ccc(C3(C(F)(F)F)CC3)cc2)ccc2c1CN(C1CCC(=O)NC1=O)C2=O (stereo not shown) [Compound I-60, N-((2-(2,6-dioxopiperidin-3-yl)-4-methyl-1-oxoisoindolin-5-yl)methyl)-2-oxo-2-(4-(1-(trifluoromethyl)cyclopropyl)phenyl)acetamide] | 50 to 80% |
| N#Cc1ccc(C(=O)C(=O)NCc2ccc3c(c2)CN(C2CCC(=O)NC2=O)C3=O)cc1 (stereo not shown) [Compound I-90, 2-(4-cyanophenyl)-N-((2-(2,6-dioxopiperidin-3-yl)-1-oxoisoindolin-5-yl)methyl)-2-oxoacetamide] | < 25% |
| Cc1ccc(NC(=S)NCc2cc3c(s2)C(=O)N(C2CCC(=O)NC2=O)C3)cc1Cl (stereo not shown) [II-39, 1-(3-chloro-4-methylphenyl)-3-((5-(2,6-dioxopiperidin-3-yl)-6-oxo-5,6-dihydro-4H-thieno[2,3-c]pyrrol-2-yl)methyl)thiourea] | > 80% |
| CC(C)(C)c1ccc(S(=O)(=O)NCCc2scc3c2CN(C2CCC(=O)NC2=O)C3=O)cc1 (stereo not shown) [II-131, 4-(tert-butyl)-N-(2-(5-(2,6-dioxopiperidin-3-yl)-4-oxo-5,6-dihydro-4H-thieno[3,4-c]pyrrol-1-yl)ethyl)benzenesulfonamide] | < 25% |
| Cc1cc(C(=O)C(=O)NCc2cccc3c2CN(C2CCC(=O)NC2=O)C3=O)ccc1C(C)(C)C (stereo not shown) [Compound I-54, 2-(3-methyl-4-(tert-butyl)phenyl)-N-((2-(2,6-dioxopiperidin-3-yl)-1-oxoisoindolin-4-yl)methyl)-2-oxoacetamide] | > 80% |
| CN(C)c1ccc(CCCC(=O)NCc2scc3c2CN(C2CCC(=O)NC2=O)C3=O)cc1 (stereo not shown) [II-85, 4-(4-(dimethylamino)phenyl)-N-((5-(2,6-dioxopiperidin-3-yl)-4-oxo-5,6-dihydro-4H-thieno[3,4-c]pyrrol-1-yl)methyl)butanamide] | < 25% |
| Cc1ccc(CC(=O)NCc2csc3c2CN(C2CCC(=O)NC2=O)C3=O)cc1Cl (stereo not shown) [II-57, 2-(3-chloro-4-methylphenyl)-N-((5-(2,6-dioxopiperidin-3-yl)-6-oxo-5,6-dihydro-4H-thieno[2,3-c]pyrrol-3-yl)methyl)acetamide] | 50 to 80% |
| CC(C)(C)c1ccc(C(=O)C(=O)Nc2cccc3c2CN(C2CCC(=O)NC2=O)C3=O)cc1 (stereo not shown) [Compound I-56, 2-(4-(tert-butyl)phenyl)-N-(2-(2,6-dioxopiperidin-3-yl)-1-oxoisoindolin-4-yl)-2-oxoacetamide] | < 25% |
| CCC(C(=O)NCc1scc2c1CN(C1CCC(=O)NC1=O)C2=O)c1ccc(C)c(Cl)c1 (stereo not shown) [II-87, 2-(3-chloro-4-methylphenyl)-N-((5-(2,6-dioxopiperidin-3-yl)-4-oxo-5,6-dihydro-4H-thieno[3,4-c]pyrrol-1-yl)methyl)butanamide] | < 25% |
| O=C1CCC(N2Cc3c(CNC(=O)C(=O)c4ccc5ccccc5c4)cccc3C2=O)C(=O)N1 (stereo not shown) [Compound I-96, N-((2-(2,6-dioxopiperidin-3-yl)-1-oxoisoindolin-4-yl)methyl)-2-(naphthalen-2-yl)-2-oxoacetamide] | < 25% |
| CC(c1ccc(C(=O)C(=O)NCc2scc3c2CN(C2CCC(=O)NC2=O)C3=O)cc1)C(F)(F)F (stereo not shown) [Compound I-36, N-((5-(2,6-dioxopiperidin-3-yl)-4-oxo-5,6-dihydro-4H-thieno[3,4-c]pyrrol-1-yl)methyl)-2-oxo-2-(4-(1,1,1-trifluoropropan-2-yl)phenyl)acetamide] | 25 to 50% |
| O=C(Cc1ccc(N2CCCC2)cc1)NCc1scc2c1CN(C1CCC(=O)NC1=O)C2=O (stereo not shown) [II-93, N-((5-(2,6-dioxopiperidin-3-yl)-4-oxo-5,6-dihydro-4H-thieno[3,4-c]pyrrol-1-yl)methyl)-2-(4-(pyrrolidin-1-yl)phenyl)acetamide] | < 25% |
| Cc1ccc(CS(=O)(=O)NCc2scc3c2CN(C2CCC(=O)NC2=O)C3=O)cc1Cl (stereo not shown) [II-69, 1-(3-chloro-4-methylphenyl)-N-((5-(2,6-dioxopiperidin-3-yl)-4-oxo-5,6-dihydro-4H-thieno[3,4-c]pyrrol-1-yl)methyl)methanesulfonamide] | 50 to 80% |
| O=C1CCC(N2Cc3c(CNC(=O)C(=O)c4ccccc4F)cccc3C2=O)C(=O)N1 (stereo not shown) [Compound I-82, 2-(2-fluorophenyl)-N-((2-(2,6-dioxopiperidin-3-yl)-1-oxoisoindolin-4-yl)methyl)-2-oxoacetamide] | 25 to 50% |
